From publication PMC6211260 (Journal of Enzyme Inhibition and Medicinal Chemistry, 2018)

Assays:
GSK3b = molecular target: T1, GSK3b (Homo sapiens, UniProt P49841); assay: In vitro kinase screening (Kinase HotSpot); type: biochemical; details: single dose of 10 µM
T1 construct: purchased Reaction Biology Corp
Text: (§1) To investigate the biological target of compound, Reaction Biology Corp. Kinase HotSpotSM service was used adopting standard assay protocol.

IKKb/IKBKB = molecular target: T2, IKKb/IKBKB (Homo sapiens, UniProt O14920); assay: In vitro kinase screening (Kinase HotSpot); type: biochemical; details: single dose of 10 µM
T2 construct: purchased Reaction Biology Corp
T2 sequence (O14920 1-756): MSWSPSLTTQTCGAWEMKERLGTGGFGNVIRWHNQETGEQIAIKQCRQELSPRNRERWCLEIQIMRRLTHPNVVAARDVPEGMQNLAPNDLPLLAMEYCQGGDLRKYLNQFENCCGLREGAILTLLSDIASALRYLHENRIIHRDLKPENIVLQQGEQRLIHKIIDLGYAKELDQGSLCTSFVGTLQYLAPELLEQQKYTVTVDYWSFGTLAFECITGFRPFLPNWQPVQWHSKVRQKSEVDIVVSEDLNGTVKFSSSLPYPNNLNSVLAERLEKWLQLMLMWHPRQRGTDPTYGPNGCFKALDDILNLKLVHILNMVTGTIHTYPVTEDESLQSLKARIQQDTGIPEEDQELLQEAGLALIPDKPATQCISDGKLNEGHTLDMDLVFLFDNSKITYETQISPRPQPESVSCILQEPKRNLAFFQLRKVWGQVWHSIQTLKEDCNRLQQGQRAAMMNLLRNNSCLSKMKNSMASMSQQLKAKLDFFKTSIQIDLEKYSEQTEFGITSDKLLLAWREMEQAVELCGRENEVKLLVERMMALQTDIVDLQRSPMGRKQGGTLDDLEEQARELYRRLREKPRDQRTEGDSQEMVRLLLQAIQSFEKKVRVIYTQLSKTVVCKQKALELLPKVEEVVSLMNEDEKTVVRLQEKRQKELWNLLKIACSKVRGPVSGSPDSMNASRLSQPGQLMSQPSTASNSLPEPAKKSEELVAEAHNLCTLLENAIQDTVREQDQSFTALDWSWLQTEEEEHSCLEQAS
Text: as §1

P38a/MAPK14 = molecular target: T3, P38a/MAPK14 (Homo sapiens, UniProt Q16539); assay: In vitro kinase screening (Kinase HotSpot); type: biochemical; details: single dose of 10 µM, P38a/MAPK14
T3 construct: purchased Reaction Biology Corp
Text: as §1

CDK2/cyclin E = molecular target: T4, CDK2/cyclin E (Homo sapiens, UniProt P24941); assay: In vitro kinase screening (Kinase HotSpot); type: biochemical; details: single dose of 10 µM
T4 construct: purchased Reaction Biology Corp
Text: as §1

ABL1 (T315I) = molecular target: T5, ABL1 (T315I) (Homo sapiens, UniProt P00519, T315I); assay: In vitro kinase screening (Kinase HotSpot); type: biochemical; details: single dose of 10 µM
T5 construct: purchased Reaction Biology Corp
Text: as §1

BRAF (V600E) = molecular target: T6, BRAF (V600E) (Homo sapiens, UniProt P15056, V600E); assay: In vitro kinase screening (Kinase HotSpot); type: biochemical; details: single dose of 10 µM, BRAF (V599E) in Table 6, BRAF (V600E) in text
T6 construct: purchased Reaction Biology Corp
Text: as §1

JNK1 = molecular target: T7, JNK1 (Homo sapiens, UniProt P45983); assay: In vitro kinase screening (Kinase HotSpot); type: biochemical; details: single dose of 10 µM
T7 construct: purchased Reaction Biology Corp
Text: as §1

JNK2 = molecular target: T8, JNK2 (Homo sapiens, UniProt P45984); assay: In vitro kinase screening (Kinase HotSpot); type: biochemical; details: single dose of 10 µM
T8 construct: purchased Reaction Biology Corp
Text: as §1

EGFR = molecular target: T9, EGFR (Homo sapiens, UniProt P00533); assay: In vitro kinase screening (Kinase HotSpot); type: biochemical; details: single dose of 10 µM
T9 construct: purchased Reaction Biology Corp
Text: as §1

BRAF = molecular target: T10, BRAF (Homo sapiens, UniProt P15056); assay: In vitro kinase screening (Kinase HotSpot); type: biochemical; details: single dose of 10 µM
T10 construct: purchased Reaction Biology Corp
Text: as §1

JNK3 = molecular target: T11, JNK3 (Homo sapiens, UniProt P53779); assay: In vitro kinase screening (Kinase HotSpot); type: biochemical; details: single dose of 10 µM
T11 construct: purchased Reaction Biology Corp
Text: as §1

[1] = system: OVCAR-4 ovarian cancer cell line; assay: NCI five-dose testing; type: cell-based; details: OVCAR-4
Description: (§2) Screening against the cancer cell lines was carried out at the National Cancer Institute (NCI, Bethesda, Maryland, USA) applying the standard protocol of the NCI[22].

[2] = system: MDA-MB-468 breast cancer cell line; assay: NCI five-dose testing; type: cell-based; details: MDA-MB-468
Description: as §2

[3] = system: PC-3 prostate cancer cell line; assay: NCI five-dose testing; type: cell-based; details: PC-3
Description: as §2

[4] = system: U251 CNS cancer cell line; assay: NCI five-dose testing; type: cell-based; details: U251
Description: as §2

[5] = system: K-562 leukaemia cell line; assay: NCI five-dose testing; type: cell-based; details: K-562
Description: as §2

[6] = system: HOP-92 non-small cell lung cancer cell line; assay: NCI five-dose testing; type: cell-based; details: HOP-92
Description: as §2

[7] = system: SK-MEL-5 melanoma cell line; assay: NCI five-dose testing; type: cell-based; details: SK-MEL-5
Description: as §2

[8] = system: HT-29 colon cancer cell line; assay: NCI five-dose testing; type: cell-based; details: HT-29
Description: as §2

[9] = system: A498 renal cancer cell line; assay: NCI five-dose testing; type: cell-based; details: A498
Description: as §2

Leukaemia cell lines = assay: NCI five-dose testing, subpanel mean; type: cell-based; details: subpanel I: Leukaemia
Description: as §2

[10] = system: ovarian cancer cell lines; assay: NCI five-dose testing, subpanel mean; type: cell-based; details: subpanel VI: ovarian cancer
Description: as §2

CNS cancer cell lines = assay: NCI five-dose testing, subpanel mean; type: cell-based; details: subpanel IV: CNS cancer
Description: as §2

colon cancer cell lines = assay: NCI five-dose testing, subpanel mean; type: cell-based; details: subpanel III: colon cancer
Description: as §2

renal cancer cell lines = assay: NCI five-dose testing, subpanel mean; type: cell-based; details: subpanel VII: renal cancer
Description: as §2

[11] = system: non-small cell lung cancer cell lines; assay: NCI five-dose testing, subpanel mean; type: cell-based; details: subpanel II: non-small cell lung cancer
Description: as §2

breast cancer cell lines = assay: NCI five-dose testing, subpanel mean; type: cell-based; details: subpanel IX: breast cancer
Description: as §2

melanoma cell lines = assay: NCI five-dose testing, subpanel mean; type: cell-based; details: subpanel V: melanoma
Description: as §2

[12] = system: prostate cancer cell lines; assay: NCI five-dose testing, subpanel mean; type: cell-based; details: subpanel VIII: prostate cancer
Description: as §2

[13] = read-out: TGI (total growth inhibition concentration)

T9 sequence (P00533 25-1210): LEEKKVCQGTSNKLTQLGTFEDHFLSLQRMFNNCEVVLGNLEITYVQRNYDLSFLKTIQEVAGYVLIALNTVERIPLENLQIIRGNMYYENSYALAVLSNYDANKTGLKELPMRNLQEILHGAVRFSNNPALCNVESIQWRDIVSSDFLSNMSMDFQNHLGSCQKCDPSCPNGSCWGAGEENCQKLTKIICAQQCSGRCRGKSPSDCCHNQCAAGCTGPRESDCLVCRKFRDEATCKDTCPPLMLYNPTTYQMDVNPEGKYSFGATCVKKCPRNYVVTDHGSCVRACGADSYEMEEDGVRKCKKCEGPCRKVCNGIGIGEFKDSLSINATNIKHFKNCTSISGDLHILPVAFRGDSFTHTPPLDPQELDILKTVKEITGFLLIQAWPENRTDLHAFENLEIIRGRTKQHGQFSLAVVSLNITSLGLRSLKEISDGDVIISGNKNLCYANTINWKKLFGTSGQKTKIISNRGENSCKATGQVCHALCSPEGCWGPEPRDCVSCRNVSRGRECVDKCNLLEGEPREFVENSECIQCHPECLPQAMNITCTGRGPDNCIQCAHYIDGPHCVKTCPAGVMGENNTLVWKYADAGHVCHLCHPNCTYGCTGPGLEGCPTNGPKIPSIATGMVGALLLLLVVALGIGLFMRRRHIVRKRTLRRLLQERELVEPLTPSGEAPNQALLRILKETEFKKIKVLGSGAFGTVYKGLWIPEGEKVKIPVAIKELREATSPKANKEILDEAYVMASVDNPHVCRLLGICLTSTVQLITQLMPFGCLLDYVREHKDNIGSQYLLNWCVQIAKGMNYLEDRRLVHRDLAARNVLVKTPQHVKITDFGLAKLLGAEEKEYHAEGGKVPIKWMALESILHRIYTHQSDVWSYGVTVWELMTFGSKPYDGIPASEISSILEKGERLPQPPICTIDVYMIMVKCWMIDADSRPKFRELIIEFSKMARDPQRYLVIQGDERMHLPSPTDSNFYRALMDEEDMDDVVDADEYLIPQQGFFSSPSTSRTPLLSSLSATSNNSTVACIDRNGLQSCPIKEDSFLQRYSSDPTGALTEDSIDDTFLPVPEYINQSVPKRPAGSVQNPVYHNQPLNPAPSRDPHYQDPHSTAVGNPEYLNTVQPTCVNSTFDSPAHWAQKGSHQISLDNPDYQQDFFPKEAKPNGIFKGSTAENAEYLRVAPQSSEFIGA
T11 sequence (P53779 whole entry): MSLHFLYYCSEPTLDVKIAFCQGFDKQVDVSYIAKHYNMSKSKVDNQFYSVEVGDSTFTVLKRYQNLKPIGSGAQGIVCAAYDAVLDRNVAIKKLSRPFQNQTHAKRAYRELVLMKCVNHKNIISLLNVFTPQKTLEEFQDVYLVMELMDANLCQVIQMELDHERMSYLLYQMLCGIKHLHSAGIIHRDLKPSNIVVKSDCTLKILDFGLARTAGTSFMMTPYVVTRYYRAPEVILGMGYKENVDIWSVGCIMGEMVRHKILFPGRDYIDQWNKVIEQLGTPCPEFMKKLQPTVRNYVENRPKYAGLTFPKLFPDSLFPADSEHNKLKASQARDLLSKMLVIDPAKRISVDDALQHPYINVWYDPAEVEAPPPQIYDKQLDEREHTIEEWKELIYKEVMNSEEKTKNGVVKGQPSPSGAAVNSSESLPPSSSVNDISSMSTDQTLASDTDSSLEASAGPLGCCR
T6 sequence (P15056 whole entry V600E): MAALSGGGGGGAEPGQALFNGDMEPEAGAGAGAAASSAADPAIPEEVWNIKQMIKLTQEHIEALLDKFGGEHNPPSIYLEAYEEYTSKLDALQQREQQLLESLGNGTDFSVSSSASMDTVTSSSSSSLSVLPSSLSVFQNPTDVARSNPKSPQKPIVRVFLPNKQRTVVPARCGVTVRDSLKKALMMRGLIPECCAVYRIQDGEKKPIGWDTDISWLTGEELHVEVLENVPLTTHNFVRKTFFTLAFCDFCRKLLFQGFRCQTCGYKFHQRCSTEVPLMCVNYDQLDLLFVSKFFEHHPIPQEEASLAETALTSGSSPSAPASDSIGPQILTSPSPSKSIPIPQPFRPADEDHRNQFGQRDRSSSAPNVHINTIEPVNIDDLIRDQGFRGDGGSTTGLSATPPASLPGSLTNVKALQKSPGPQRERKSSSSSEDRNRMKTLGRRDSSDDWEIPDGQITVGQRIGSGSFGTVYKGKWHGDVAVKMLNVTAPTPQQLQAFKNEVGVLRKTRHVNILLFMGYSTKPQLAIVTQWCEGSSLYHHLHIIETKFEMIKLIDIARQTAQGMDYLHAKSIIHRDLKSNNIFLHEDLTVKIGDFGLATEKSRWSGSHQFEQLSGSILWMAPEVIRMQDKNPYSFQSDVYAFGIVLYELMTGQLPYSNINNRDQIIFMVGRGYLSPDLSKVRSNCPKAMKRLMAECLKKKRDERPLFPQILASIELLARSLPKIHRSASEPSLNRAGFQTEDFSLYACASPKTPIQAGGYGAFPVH
T1 sequence (P49841 whole entry): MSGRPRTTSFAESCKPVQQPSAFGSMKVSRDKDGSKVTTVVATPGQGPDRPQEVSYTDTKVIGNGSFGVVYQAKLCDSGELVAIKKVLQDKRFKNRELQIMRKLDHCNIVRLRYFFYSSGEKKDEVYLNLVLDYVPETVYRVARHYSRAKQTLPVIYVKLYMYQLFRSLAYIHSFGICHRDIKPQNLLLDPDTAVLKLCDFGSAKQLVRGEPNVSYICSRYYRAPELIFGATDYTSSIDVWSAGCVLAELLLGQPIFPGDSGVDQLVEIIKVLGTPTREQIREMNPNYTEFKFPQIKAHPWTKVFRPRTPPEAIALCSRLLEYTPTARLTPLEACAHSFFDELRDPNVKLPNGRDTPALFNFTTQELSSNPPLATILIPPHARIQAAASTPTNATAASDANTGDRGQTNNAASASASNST
T8 sequence (P45984 whole entry): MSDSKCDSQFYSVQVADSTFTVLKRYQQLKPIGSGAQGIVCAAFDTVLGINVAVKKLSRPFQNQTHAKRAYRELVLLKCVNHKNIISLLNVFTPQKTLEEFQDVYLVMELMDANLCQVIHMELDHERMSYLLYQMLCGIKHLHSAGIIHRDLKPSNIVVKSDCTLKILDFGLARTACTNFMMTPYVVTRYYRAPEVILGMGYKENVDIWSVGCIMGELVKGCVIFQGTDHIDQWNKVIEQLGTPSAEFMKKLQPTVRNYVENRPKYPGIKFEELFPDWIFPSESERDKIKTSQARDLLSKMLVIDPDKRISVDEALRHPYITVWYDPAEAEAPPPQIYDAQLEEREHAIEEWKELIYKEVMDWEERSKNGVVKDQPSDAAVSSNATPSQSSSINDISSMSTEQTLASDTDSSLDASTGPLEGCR
T3 sequence (Q16539 whole entry): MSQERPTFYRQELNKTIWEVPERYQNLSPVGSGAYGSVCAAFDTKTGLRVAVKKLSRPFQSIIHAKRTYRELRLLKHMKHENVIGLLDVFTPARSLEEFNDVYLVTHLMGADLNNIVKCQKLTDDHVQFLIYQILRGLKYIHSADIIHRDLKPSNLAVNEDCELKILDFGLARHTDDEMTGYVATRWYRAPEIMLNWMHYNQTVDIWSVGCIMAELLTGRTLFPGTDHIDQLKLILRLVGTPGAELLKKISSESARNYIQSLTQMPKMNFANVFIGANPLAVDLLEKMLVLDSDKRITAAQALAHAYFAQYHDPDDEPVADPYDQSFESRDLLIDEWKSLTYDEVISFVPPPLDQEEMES
T7 sequence (P45983 whole entry): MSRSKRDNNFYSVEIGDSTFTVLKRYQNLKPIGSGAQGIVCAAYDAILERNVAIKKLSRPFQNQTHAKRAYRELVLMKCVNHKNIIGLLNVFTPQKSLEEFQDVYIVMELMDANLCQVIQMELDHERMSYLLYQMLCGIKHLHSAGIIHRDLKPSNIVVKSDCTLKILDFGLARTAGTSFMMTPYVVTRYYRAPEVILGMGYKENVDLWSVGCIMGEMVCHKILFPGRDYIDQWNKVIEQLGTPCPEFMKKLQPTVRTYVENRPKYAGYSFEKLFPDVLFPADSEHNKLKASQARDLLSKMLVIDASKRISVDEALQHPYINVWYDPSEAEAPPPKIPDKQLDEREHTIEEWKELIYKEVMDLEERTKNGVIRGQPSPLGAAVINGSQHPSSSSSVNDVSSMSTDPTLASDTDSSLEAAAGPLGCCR
T10 sequence (P15056 whole entry): as the sequence (P15056 whole entry V600E) above, with E600V counted along it

Q: For `O=S(=O)(NCCNc1cc(-c2cn(-c3ccccc3)nc2-c2cccc(O)c2)ccn1)c1ccc(Cl)cc1` [Compound 1l, 4-Chloro-N-(2-((4-(3-(3-hydroxyphenyl)-1-phenyl-1H-pyrazol-4-yl)pyridin-2-yl)amino)ethyl) benzenesulfonamide], which Inhibition % (GSK3b) is on record?
A: 15.88 ± 0.21%

Q: And the Inhibition % (IKKb/IKBKB)?
A: 7.80 ± 0.10%

Q: What about the Inhibition % (P38a/MAPK14) of the same compound?
A: 68.43 ± 0.59%

Q: And the Inhibition % (CDK2/cyclin E)?
A: 8.36 ± 0.95%

Q: What about the Inhibition % (ABL1 (T315I)) of the same compound?
A: 6.39 ± 0.35%

Q: What about the Inhibition % (BRAF (V600E)) of the same compound?
A: 48.09 ± 0.45%

Q: And the Inhibition % (JNK1)?
A: 53.79 ± 0.04%

Q: And the Inhibition % (JNK2)?
A: 44.68 ± 0.01%

Q: What about the Inhibition % (EGFR) of the same compound?
A: 10.33 ± 3.40%

Q: And the Inhibition % (BRAF)?
A: 21.28 ± 0.21%

Q: And the Inhibition % (JNK3)?
A: 35.70 ± 0.04%

Q: What about the IC50 [1] of the same compound?
A: 4370 nM

Q: And the “LD50 (lethal dose 50)” value [1]?
A: >100 µM

Q: What about the IC (TGI) [1, 13] of the same compound?
A: >100000 nM

Q: What about the IC50 [2] of the same compound?
A: 2780 nM

Q: What about the “LD50 (lethal dose 50)” value [2] of the same compound?
A: >100 µM

Q: What about the IC (TGI) [2, 13] of the same compound?
A: 7660 nM

Q: What about the “LD50 (lethal dose 50)” value [3] of the same compound?
A: >100 µM

Q: What about the IC50 ([3]; read-out: IC50) of the same compound?
A: 2450 nM

Q: And the IC (TGI) [3, 13]?
A: 12000 nM

Q: What about the “LD50 (lethal dose 50)” value [4] of the same compound?
A: 45.9 µM

Q: And the IC50 ([4]; read-out: IC50)?
A: 3210 nM

Q: What about the IC (TGI) [4, 13] of the same compound?
A: 11400 nM

Q: What about the IC50 [5] of the same compound?
A: 1980 nM

Q: And the “LD50 (lethal dose 50)” value [5]?
A: >100 µM

Q: And the IC (TGI) [5, 13]?
A: 5400 nM

Q: And the IC50 [6]?
A: 2340 nM

Q: And the “LD50 (lethal dose 50)” value [6]?
A: 70.5 µM

Q: What about the IC (TGI) [6, 13] of the same compound?
A: 8300 nM

Q: What about the IC50 [7] of the same compound?
A: 2020 nM

Q: What about the “LD50 (lethal dose 50)” value [7] of the same compound?
A: 7.9 µM

Q: What about the IC (TGI) [7, 13] of the same compound?
A: 4000 nM

Q: What about the “LD50 (lethal dose 50)” value [8] of the same compound?
A: 61.8 µM

Q: What about the IC50 ([8]; read-out: IC50) of the same compound?
A: 2240 nM

Q: What about the IC (TGI) [8, 13] of the same compound?
A: 5200 nM

Q: What about the IC50 [9] of the same compound?
A: 2630 nM

Q: What about the “LD50 (lethal dose 50)” value [9] of the same compound?
A: 57.1 µM

Q: What about the IC (TGI) [9, 13] of the same compound?
A: 9500 nM

Q: And the IC50 (Leukaemia cell lines)?
A: 2440 nM

Q: And the IC50 [10]?
A: 3290 nM

Q: And the IC50 (CNS cancer cell lines)?
A: 2850 nM

Q: And the IC50 (colon cancer cell lines)?
A: 2460 nM

Q: What about the IC50 (renal cancer cell lines) of the same compound?
A: 3180 nM

Q: What about the IC50 [11] of the same compound?
A: 3160 nM

Q: And the IC50 (breast cancer cell lines)?
A: 2480 nM

Q: What about the IC50 (melanoma cell lines) of the same compound?
A: 2380 nM

Q: What about the IC50 [12] of the same compound?
A: 3030 nM
